Columns and labels:
Assay in all cases: Test B preemergence/postemergence greenhouse plant response rating 0 to 10
barley = format: in vivo, Hordeum vulgare; details: for Plant response rating, Barley: 0 to 10 scale
Summary of the method: (§1)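 Test chemicals were sprayed onto freshly planted seed and, concurrently, onto young plants between the one and four leaf stage. After a twelve- to sixteen-day greenhouse period, each species was visually compared with untreated controls.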

barnyardgrass = format: in vivo, Echinochloa crus-galli; details: for Plant response rating, Barnyardgrass: 0 to 10 scale
Summary of the method: as §1

bedstraw = format: in vivo, Galium aparine; details: for Plant response rating, Bedstraw: 0 to 10 scale
Summary of the method: as §1

blackgrass = format: in vivo, Alopecurus myosuroides; details: for Plant response rating, Blackgrass: 0 to 10 scale
Summary of the method: as §1

cheatgrass = format: in vivo, Bromus secalinus; details: for Plant response rating, Cheatgrass: 0 to 10 scale
Summary of the method: as §1

chickweed = format: in vivo, Stellaria media; details: for Plant response rating, Chickweed: 0 to 10 scale
Summary of the method: as §1

cocklebur = format: in vivo, Xanthium pensylvanicum; details: for Plant response rating, Cocklebur: 0 to 10 scale
Summary of the method: as §1

corn = format: in vivo, Zea mays; details: for Plant response rating, Corn: 0 to 10 scale
Summary of the method: as §1

cotton = format: in vivo, Gossypium hirsutum; details: for Plant response rating, Cotton: 0 to 10 scale
Summary of the method: as §1

crabgrass = format: in vivo, Digitaria spp.; details: for Plant response rating, Crabgrass: 0 to 10 scale
Summary of the method: as §1

giant foxtail = format: in vivo, Setaria faberii; details: for Plant response rating, Giant foxtail: 0 to 10 scale
Summary of the method: as §1

lambsquarters = format: in vivo, Chenopodium album; details: for Plant response rating, Lambsquarter: 0 to 10 scale
Summary of the method: as §1

morningglory = format: in vivo, Ipomoea hederacea; details: for Plant response rating, Morningglory: 0 to 10 scale
Summary of the method: as §1

rape = format: in vivo, Brassica napus; details: for Plant response rating, Rape: 0 to 10 scale
Summary of the method: as §1

rice = format: in vivo, Oryza sativa; details: for Plant response rating, Rice: 0 to 10 scale
Summary of the method: as §1

sorghum = format: in vivo, Sorghum bicolor; details: for Plant response rating, Sorghum: 0 to 10 scale
Summary of the method: as §1

soybean = format: in vivo, Glycine max; details: for Plant response rating, Soybean: 0 to 10 scale
Summary of the method: as §1

sugar beet = format: in vivo, Beta vulgaris; details: for Plant response rating, Sugar beet: 0 to 10 scale
Summary of the method: as §1

velvetleaf = format: in vivo, Abutilon theophrasti; details: for Plant response rating, Velvetleaf: 0 to 10 scale
Summary of the method: as §1

wheat = format: in vivo, Triticum aestivum; details: for Plant response rating, Wheat: 0 to 10 scale
Summary of the method: as §1

wild buckwheat = format: in vivo, Polygonum convolvulus; details: for Plant response rating, Wild buckwheat: 0 to 10 scale
Summary of the method: as §1

wild oat = format: in vivo, Avena fatua; details: for Plant response rating, Wild oat: 0 to 10 scale
Summary of the method: as §1

purple nutsedge = format: in vivo, Cyperus rotundus; details: for Plant response rating, Nutsedge: 0 to 10 scale
Summary of the method: as §1

COCCOc1cc(-c2nn3c(c2Cl)CCCC3)c(Cl)cc1Cl [Compound 72]
Plant response rating, Barley (barley; POSTEMERGENCE, Rate 50 g/ha): 4 | Plant response rating, Barley (barley; PREEMERGENCE, Rate 50 g/ha): 0 | Plant response rating (0 to 10 scale), Barley (barley; PREEMERGENCE, Rate 200 g/ha): 0 | Plant response rating, Barley (barley; Rate 200 g/ha, POSTEMERGENCE): 5 | Plant response rating, Barnyardgrass (barnyardgrass; POSTEMERGENCE, Rate 50 g/ha): 5 | Plant response rating, Barnyardgrass (barnyardgrass; PREEMERGENCE, Rate 50 g/ha): 3 | Plant response rating (0 to 10 scale), Barnyardgrass (barnyardgrass; PREEMERGENCE, Rate 200 g/ha): 3 | Plant response rating, Barnyardgrass (barnyardgrass; Rate 200 g/ha, POSTEMERGENCE): 7 | Plant response rating, Bedstraw (bedstraw; POSTEMERGENCE, Rate 50 g/ha): 7 | Plant response rating, Bedstraw (bedstraw; PREEMERGENCE, Rate 50 g/ha): 0 | Plant response rating (0 to 10 scale), Bedstraw (bedstraw; PREEMERGENCE, Rate 200 g/ha): 8 | Plant response rating, Bedstraw (bedstraw; Rate 200 g/ha, POSTEMERGENCE): 9 | Plant response rating, Blackgrass (blackgrass; POSTEMERGENCE, Rate 50 g/ha): 5 | Plant response rating, Blackgrass (blackgrass; PREEMERGENCE, Rate 50 g/ha): 0 | Plant response rating (0 to 10 scale), Blackgrass (blackgrass; PREEMERGENCE, Rate 200 g/ha): 4 | Plant response rating, Blackgrass (blackgrass; Rate 200 g/ha, POSTEMERGENCE): 7 | Plant response rating, Cheatgrass (cheatgrass; POSTEMERGENCE, Rate 50 g/ha): 5 | Plant response rating, Cheatgrass (cheatgrass; PREEMERGENCE, Rate 50 g/ha): 0 | Plant response rating (0 to 10 scale), Cheatgrass (cheatgrass; PREEMERGENCE, Rate 200 g/ha): 3 | Plant response rating, Cheatgrass (cheatgrass; Rate 200 g/ha, POSTEMERGENCE): 6 | Plant response rating, Chickweed (chickweed; POSTEMERGENCE, Rate 50 g/ha): 2 | Plant response rating, Chickweed (chickweed; PREEMERGENCE, Rate 50 g/ha): 0 | Plant response rating (0 to 10 scale), Chickweed (chickweed; PREEMERGENCE, Rate 200 g/ha): 9 | Plant response rating, Chickweed (chickweed; Rate 200 g/ha, POSTEMERGENCE): 3 | Plant response rating, Cocklebur (cocklebur; POSTEMERGENCE, Rate 50 g/ha): 8 | Plant response rating, Cocklebur (cocklebur; PREEMERGENCE, Rate 50 g/ha): 0 | Plant response rating (0 to 10 scale), Cocklebur (cocklebur; PREEMERGENCE, Rate 200 g/ha): 0 | Plant response rating, Cocklebur (cocklebur; Rate 200 g/ha, POSTEMERGENCE): 10 | Plant response rating, Corn (corn; POSTEMERGENCE, Rate 50 g/ha): 3 | Plant response rating, Corn (corn; PREEMERGENCE, Rate 50 g/ha): 0 | Plant response rating (0 to 10 scale), Corn (corn; PREEMERGENCE, Rate 200 g/ha): 2 | Plant response rating, Corn (corn; Rate 200 g/ha, POSTEMERGENCE): 5 | Plant response rating, Cotton (cotton; POSTEMERGENCE, Rate 50 g/ha): 10 | Plant response rating, Cotton (cotton; PREEMERGENCE, Rate 50 g/ha): 0 | Plant response rating (0 to 10 scale), Cotton (cotton; PREEMERGENCE, Rate 200 g/ha): 0 | Plant response rating, Cotton (cotton; Rate 200 g/ha, POSTEMERGENCE): 10 | Plant response rating, Crabgrass (crabgrass; POSTEMERGENCE, Rate 50 g/ha): 2 | Plant response rating, Crabgrass (crabgrass; PREEMERGENCE, Rate 50 g/ha): 0 | Plant response rating (0 to 10 scale), Crabgrass (crabgrass; PREEMERGENCE, Rate 200 g/ha): 9 | Plant response rating, Crabgrass (crabgrass; Rate 200 g/ha, POSTEMERGENCE): 2 | Plant response rating, Giant foxtail (giant foxtail; POSTEMERGENCE, Rate 50 g/ha): 4 | Plant response rating, Giant foxtail (giant foxtail; PREEMERGENCE, Rate 50 g/ha): 3 | Plant response rating (0 to 10 scale), Giant foxtail (giant foxtail; PREEMERGENCE, Rate 200 g/ha): 7 | Plant response rating, Giant foxtail (giant foxtail; Rate 200 g/ha, POSTEMERGENCE): 5 | Plant response rating, Lambsquarter (lambsquarters; POSTEMERGENCE, Rate 50 g/ha): 10 | Plant response rating, Lambsquarter (lambsquarters; PREEMERGENCE, Rate 50 g/ha): 9 | Plant response rating (0 to 10 scale), Lambsquarter (lambsquarters; PREEMERGENCE, Rate 200 g/ha): 10 | Plant response rating, Lambsquarter (lambsquarters; Rate 200 g/ha, POSTEMERGENCE): 10 | Plant response rating, Morningglory (morningglory; POSTEMERGENCE, Rate 50 g/ha): 7 | Plant response rating, Morningglory (morningglory; PREEMERGENCE, Rate 50 g/ha): 0 | Plant response rating (0 to 10 scale), Morningglory (morningglory; PREEMERGENCE, Rate 200 g/ha): 0 | Plant response rating, Morningglory (morningglory; Rate 200 g/ha, POSTEMERGENCE): 9 | Plant response rating, Rape (rape; POSTEMERGENCE, Rate 50 g/ha): 9 | Plant response rating, Rape (rape; PREEMERGENCE, Rate 50 g/ha): 0 | Plant response rating (0 to 10 scale), Rape (rape; PREEMERGENCE, Rate 200 g/ha): 6 | Plant response rating, Rape (rape; Rate 200 g/ha, POSTEMERGENCE): 9 | Plant response rating, Rice (rice; POSTEMERGENCE, Rate 50 g/ha): 4 | Plant response rating, Rice (rice; PREEMERGENCE, Rate 50 g/ha): 0 | Plant response rating (0 to 10 scale), Rice (rice; PREEMERGENCE, Rate 200 g/ha): 0 | Plant response rating, Rice (rice; Rate 200 g/ha, POSTEMERGENCE): 6 | Plant response rating, Sorghum (sorghum; POSTEMERGENCE, Rate 50 g/ha): 5 | Plant response rating, Sorghum (sorghum; PREEMERGENCE, Rate 50 g/ha): 0 | Plant response rating (0 to 10 scale), Sorghum (sorghum; PREEMERGENCE, Rate 200 g/ha): 0 | Plant response rating, Sorghum (sorghum; Rate 200 g/ha, POSTEMERGENCE): 6 | Plant response rating, Soybean (soybean; POSTEMERGENCE, Rate 50 g/ha): 6 | Plant response rating, Soybean (soybean; PREEMERGENCE, Rate 50 g/ha): 0 | Plant response rating (0 to 10 scale), Soybean (soybean; PREEMERGENCE, Rate 200 g/ha): 0 | Plant response rating, Soybean (soybean; Rate 200 g/ha, POSTEMERGENCE): 7 | Plant response rating, Sugar beet (sugar beet; POSTEMERGENCE, Rate 50 g/ha): 10 | Plant response rating, Sugar beet (sugar beet; PREEMERGENCE, Rate 50 g/ha): 0 | Plant response rating (0 to 10 scale), Sugar beet (sugar beet; PREEMERGENCE, Rate 200 g/ha): 9 | Plant response rating, Sugar beet (sugar beet; Rate 200 g/ha, POSTEMERGENCE): 10 | Plant response rating, Velvetleaf (velvetleaf; POSTEMERGENCE, Rate 50 g/ha): 9 | Plant response rating, Velvetleaf (velvetleaf; PREEMERGENCE, Rate 50 g/ha): 0 | Plant response rating (0 to 10 scale), Velvetleaf (velvetleaf; PREEMERGENCE, Rate 200 g/ha): 10 | Plant response rating, Velvetleaf (velvetleaf; Rate 200 g/ha, POSTEMERGENCE): 10 | Plant response rating, Wheat (wheat; POSTEMERGENCE, Rate 50 g/ha): 5 | Plant response rating, Wheat (wheat; PREEMERGENCE, Rate 50 g/ha): 0 | Plant response rating (0 to 10 scale), Wheat (wheat; PREEMERGENCE, Rate 200 g/ha): 3 | Plant response rating, Wheat (wheat; Rate 200 g/ha, POSTEMERGENCE): 5 | Plant response rating, Wild buckwheat (wild buckwheat; POSTEMERGENCE, Rate 50 g/ha): 10 | Plant response rating, Wild buckwheat (wild buckwheat; PREEMERGENCE, Rate 50 g/ha): 0 | Plant response rating (0 to 10 scale), Wild buckwheat (wild buckwheat; PREEMERGENCE, Rate 200 g/ha): 2 | Plant response rating, Wild buckwheat (wild buckwheat; Rate 200 g/ha, POSTEMERGENCE): 10 | Plant response rating, Wild oat (wild oat; POSTEMERGENCE, Rate 50 g/ha): 3 | Plant response rating, Wild oat (wild oat; PREEMERGENCE, Rate 50 g/ha): 0 | Plant response rating (0 to 10 scale), Wild oat (wild oat; PREEMERGENCE, Rate 200 g/ha): 3 | Plant response rating, Wild oat (wild oat; Rate 200 g/ha, POSTEMERGENCE): 4 | Plant response rating, Nutsedge (purple nutsedge; POSTEMERGENCE, Rate 50 g/ha): 2 | Plant response rating, Nutsedge (purple nutsedge; PREEMERGENCE, Rate 50 g/ha): 0 | Plant response rating (0 to 10 scale), Nutsedge (purple nutsedge; PREEMERGENCE, Rate 200 g/ha): 4 | Plant response rating, Nutsedge (purple nutsedge; Rate 200 g/ha, POSTEMERGENCE): 2
